# In EP2987533B1, “7-substituted piperazin-1-yl fluoroquinolone compounds, their use in the treatment of cancer, pharmaceutical compositions and a method for preparation” (priority 2014, dated 2016):
# Experiments:
# HOP-62 = test: NCI one-dose SRB growth assay; assay type: cell-based; settings: Homo sapiens; HOP-62 (Non-Small Cell Lung Cancer), 10^-5 M, 48 h; read-out: % Growth Inhibition (GI %)
# Procedure: (§1) A primary anticancer assay was performed for an approximately 60 human tumor cell line panel derived from nine neoplastic diseases, in accordance with the protocol of the Drug Evaluation Branch, National Cancer Institute, Bethesda, MD (Monks A. et al., J. Natl. Cancer Inst 1991, 83, 757-766; Boyd M.R. and Paull K.D., Drug. Dev. Res. 1995, 34, 91-109; Shoemaker R.H., Nat. Rev. Cancer 2006, 6, 813-823). Briefly, tested compounds were added to the culture at a single concentration (10^-5M), and the cultures were incubated for 48 h. End point determinations were made with a protein binding dye, sulforhodamine B (SRB). The results for each tested compound were reported as the growth percentage of the treated cells when compared to that of the untreated control cells. The percentage growth was evaluated spectrophotometrically versus controls not treated with test agents.
# HT29 = test: NCI one-dose SRB growth assay; assay type: cell-based; settings: Homo sapiens, HT-29; HT29 (Colon Cancer), 10^-5 M, 48 h; read-out: % Growth Inhibition (GI %)
# Procedure: as §1
# MCF7 = test: NCI one-dose SRB growth assay; assay type: cell-based; settings: Homo sapiens; MCF7 (Breast Cancer), 10^-5 M, 48 h; read-out: % Growth Inhibition (GI %)
# Procedure: as §1
# UACC-257 = test: NCI one-dose SRB growth assay; assay type: cell-based; settings: Homo sapiens; UACC-257 (Melanoma), 10^-5 M, 48 h; read-out: % Growth Inhibition (GI %)
# Procedure: as §1
# SF-268 = test: NCI one-dose SRB growth assay; assay type: cell-based; settings: Homo sapiens; SF-268 (CNS Cancer), 10^-5 M, 48 h; read-out: % Growth Inhibition (GI %)
# Procedure: as §1
# COLO 205 = test: NCI one-dose SRB growth assay; assay type: cell-based; settings: Homo sapiens; COLO 205 (Colon Cancer), 10^-5 M, 48 h; read-out: % Growth Inhibition (GI %)
# Procedure: as §1
# PRMI-8226 = test: NCI one-dose SRB growth assay; assay type: cell-based; settings: Homo sapiens; PRMI-8226 (Leukemia), 10^-5 M, 48 h; read-out: % Growth Inhibition (GI %)
# Procedure: as §1
# MDA-MB-231/ATCC = test: NCI one-dose SRB growth assay; assay type: cell-based; settings: Homo sapiens; MDA-MB- 231/ATCC (Breast Cancer), 10^-5 M, 48 h; read-out: % Growth Inhibition (GI %)
# Procedure: as §1
# SNB-75 = test: NCI one-dose SRB growth assay; assay type: cell-based; settings: Homo sapiens; SNB-75 (CNS Cancer), 10^-5 M, 48 h; read-out: % Growth Inhibition (GI %)
# Procedure: as §1
# OVCAR-5 = test: NCI one-dose SRB growth assay; assay type: cell-based; settings: Homo sapiens; OVCAR-5 (Ovarian Cancer), 10^-5 M, 48 h; read-out: % Growth Inhibition (GI %)
# Procedure: as §1
# 786-0 = test: NCI one-dose SRB growth assay; assay type: cell-based; settings: Homo sapiens; 786-0 (Renal Cancer), 10^-5 M, 48 h; read-out: % Growth Inhibition (GI %)
# Procedure: as §1
# SW-620 = test: NCI one-dose SRB growth assay; assay type: cell-based; settings: Homo sapiens; SW-620 (Colon Cancer), 10^-5 M, 48 h; read-out: % Growth Inhibition (GI %)
# Procedure: as §1
# MOLT-4 = test: NCI one-dose SRB growth assay; assay type: cell-based; settings: Homo sapiens; MOLT-4 (Leukemia), 10^-5 M, 48 h; read-out: % Growth Inhibition (GI %)
# Procedure: as §1
# CCRF-CEM = test: NCI one-dose SRB growth assay; assay type: cell-based; settings: Homo sapiens; CCRF-CEM (Leukemia), 10^-5 M, 48 h; read-out: % Growth Inhibition (GI %)
# Procedure: as §1
# K-562 = test: NCI one-dose SRB growth assay; assay type: cell-based; settings: Homo sapiens, K562; K-562 (Leukemia), 10^-5 M, 48 h; read-out: % Growth Inhibition (GI %)
# Procedure: as §1
# SF-539 = test: NCI one-dose SRB growth assay; assay type: cell-based; settings: Homo sapiens; SF-539 (CNS Cancer), 10^-5 M, 48 h; read-out: % Growth Inhibition (GI %)
# Procedure: as §1
# HCT-15 = test: NCI one-dose SRB growth assay; assay type: cell-based; settings: Homo sapiens; HCT-15 (Colon Cancer), 10^-5 M, 48 h; read-out: % Growth Inhibition (GI %)
# Procedure: as §1
# DU-145 = test: NCI one-dose SRB growth assay; assay type: cell-based; settings: Homo sapiens; DU-145 (Prostate Cancer), 10^-5 M, 48 h; read-out: % Growth Inhibition (GI %)
# Procedure: as §1
# [1] = system: full panel of about 60 human tumor cell lines; test: NCI five-dose SRB assay, full panel mean; settings: 48 h; for CC50 / GI50: Homo sapiens; for CC50: 60 cell, read-out: LC50 MG-MID (Full panel mean-graph midpoint); for GI50: read-out: GI50 MG-MID (Full panel mean-graph midpoint); for TGI MG-MID (Full panel mean-graph midpoint): five concentrations
# NSC lung cancer = test: NCI five-dose SRB assay, subpanel average; settings: 48 h; for GI50 / CC50: Homo sapiens; for GI50: read-out: GI50 (median growth inhibitory); for CC50: read-out: LC50 (median lethal); for TGI (total growth inhibitory): average over NSC lung cancer subpanel, five concentrations
# [2] = system: 60 human tumor cell line panel; test: NCI 60 cell line one-dose SRB primary anticancer assay; assay type: cell-based; settings: 60 cell lines assay in one dose, 10µM (title; head prints 10.0 mM), 48 h; for inhibition at 10 µM: Homo sapiens, read-out: MGI % (Mean growth inhibition percentage)
# Procedure: as §1
# breast cancer = test: NCI five-dose SRB assay, subpanel average; settings: 48 h; for GI50 / CC50: Homo sapiens; for GI50: read-out: GI50 (median growth inhibitory); for CC50: read-out: LC50 (median lethal); for TGI (total growth inhibitory): average over breast cancer subpanel, five concentrations
# colon cancer = test: NCI five-dose SRB assay, subpanel average; settings: 48 h; for GI50 / CC50: Homo sapiens; for GI50: read-out: GI50 (median growth inhibitory); for CC50: read-out: LC50 (median lethal); for TGI (total growth inhibitory): average over colon cancer subpanel, five concentrations
# renal cancer = test: NCI five-dose SRB assay, subpanel average; settings: 48 h; for GI50 / CC50: Homo sapiens; for GI50: read-out: GI50 (median growth inhibitory); for CC50: read-out: LC50 (median lethal); for TGI (total growth inhibitory): average over renal cancer subpanel, five concentrations
# melanoma = test: NCI five-dose SRB assay, subpanel average; settings: 48 h; for GI50 / CC50: Homo sapiens; for GI50: read-out: GI50 (median growth inhibitory); for CC50: read-out: LC50 (median lethal); for TGI (total growth inhibitory): average over melanoma subpanel, five concentrations
SMILES,inhibition at 10 µM (HOP-62) [%],inhibition at 10 µM (HT29) [%],inhibition at 10 µM (MCF7) [%],inhibition at 10 µM (UACC-257) [%],inhibition at 10 µM (SF-268) [%],inhibition at 10 µM (COLO 205) [%],inhibition at 10 µM (PRMI-8226) [%],inhibition at 10 µM (MDA-MB-231/ATCC) [%],inhibition at 10 µM (SNB-75) [%],inhibition at 10 µM (OVCAR-5) [%],inhibition at 10 µM (786-0) [%],inhibition at 10 µM (SW-620) [%],inhibition at 10 µM (MOLT-4) [%],inhibition at 10 µM (CCRF-CEM) [%],inhibition at 10 µM (K-562) [%],inhibition at 10 µM (SF-539) [%],inhibition at 10 µM (HCT-15) [%],inhibition at 10 µM (DU-145) [%],CC50 [1] [µM],GI50 [1] [µM],further results
CCn1cc(C(=O)O)c(=O)c2cc(F)c(N3CCN(S(=O)(=O)c4ccc(Cl)cc4Cl)CC3)cc21 [Compound 2a],80.5,98.1,10.8,> 100,75.4,> 100,90.9,74.5,25.2,92.1,81.3,83.7,98.2,97.2,89.1,91.4,92.4,88.4,57.5,2.63,TGI MG-MID (Full panel mean-graph midpoint) [1]: 14.12 µM; GI50 (NSC lung cancer): 2.49 µM; CC50 (NSC lung cancer): 73.2 µM; TGI (total growth inhibitory) (NSC lung cancer): 19.61 µM; PCE (Positive cytotoxic effect: ratio between number of cell lines with percentage growth inhibition from 10 to >100 and total number of cell lines) [2]: 56/58; RGI % (Range of growth inhibition percentage) [2]: >100.0 to 25.22%; inhibition at 10 µM [2]: 94.2%; GI50 (breast cancer): 2.51 µM; CC50 (breast cancer): 88.1 µM; TGI (total growth inhibitory) (breast cancer): 8.44 µM; GI50 (colon cancer): 3.15 µM; CC50 (colon cancer): 77.2 µM; TGI (total growth inhibitory) (colon cancer): 72.89 µM; GI50 (renal cancer): 2.73 µM; CC50 (renal cancer): 82.5 µM; TGI (total growth inhibitory) (renal cancer): 23.97 µM; GI50 (melanoma): 2.3 µM; CC50 (melanoma): 39.5 µM; TGI (total growth inhibitory) (melanoma): 6.36 µM
Cc1cc(C)c(S(=O)(=O)N2CCN(c3cc4c(cc3F)c(=O)c(C(=O)O)cn4C3CC3)CC2)c(C)c1 [Compound 6b],42.7,71.7,46,13.1,43.3,42.4,77.7,15.4,63.4,57.8,24.4,20.2,39,62.7,36.5,53.5,44.9,28.6,> 100,3.01,TGI MG-MID (Full panel mean-graph midpoint) [1]: 89.12 µM; GI50 (NSC lung cancer): 2.88 µM; CC50 (NSC lung cancer): > 100 µM; TGI (total growth inhibitory) (NSC lung cancer): c (Compounds showed values > 100µM); PCE (Positive cytotoxic effect: ratio between number of cell lines with percentage growth inhibition from 10 to >100 and total number of cell lines) [2]: 56/58; RGI % (Range of growth inhibition percentage) [2]: 91.28 to 13.08%; inhibition at 10 µM [2]: 43.8%; GI50 (breast cancer): 2.85 µM; CC50 (breast cancer): > 100 µM; TGI (total growth inhibitory) (breast cancer): 76.89 µM; GI50 (colon cancer): 3.46 µM; CC50 (colon cancer): > 100 µM; TGI (total growth inhibitory) (colon cancer): c (Compounds showed values > 100µM); GI50 (renal cancer): 2.78 µM; CC50 (renal cancer): > 100 µM; TGI (total growth inhibitory) (renal cancer): c (Compounds showed values > 100µM); GI50 (melanoma): 22.3 µM; CC50 (melanoma): > 100 µM; TGI (total growth inhibitory) (melanoma): c (Compounds showed values > 100µM)
